The record followed here is ChEMBL document CHEMBL5728169, “Compounds and methods for inhibiting CYP26 enzymes” (2020).

Some results are limits rather than exact numbers.

The target in one data set is T1, Cytochrome P450 26A1 (Homo sapiens, UniProt O43174).
T1 sequence (O43174 whole entry): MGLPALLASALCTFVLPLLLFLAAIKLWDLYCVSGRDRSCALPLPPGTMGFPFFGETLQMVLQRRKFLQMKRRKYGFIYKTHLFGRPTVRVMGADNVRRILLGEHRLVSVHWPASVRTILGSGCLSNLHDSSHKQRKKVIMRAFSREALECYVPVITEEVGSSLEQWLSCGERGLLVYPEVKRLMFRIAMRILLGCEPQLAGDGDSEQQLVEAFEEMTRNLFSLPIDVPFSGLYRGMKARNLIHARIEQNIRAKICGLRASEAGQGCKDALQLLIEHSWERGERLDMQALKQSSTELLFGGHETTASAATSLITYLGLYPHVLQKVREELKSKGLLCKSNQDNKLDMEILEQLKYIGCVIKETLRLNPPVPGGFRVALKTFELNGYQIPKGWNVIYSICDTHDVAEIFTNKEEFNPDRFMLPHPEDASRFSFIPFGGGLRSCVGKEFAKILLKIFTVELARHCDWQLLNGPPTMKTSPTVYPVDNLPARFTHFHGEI
Put plainly: (§1) Cell-Based Inhibitor Assay: CYP26A1 or CYP26B1 stably transfected HeLa cells were maintained in Minimum Essential Medium (MEM) containing 10% fetal bovine serum (FBS) and 100 μg/mL hygromycin. Exponentially growing cells were harvested by incubation in trypsin. Cells were then collected and re-plated in 48-well culture plates at 5×10^5 cells in 0.2 mL of culture medium containing 0.05 μCi [3H]-RA in the presence or absence of increasing concentrations of a test compound. The test compounds were diluted in dimethyl sulfoxide (DMSO) and then added in duplicate to wells at 0.01, 0.1, 1, 10 and 100 μM final concentration. […] Cells were incubated for 3 hours at 37° C. Retinoids were then extracted using the procedure of Bligh, et al., (1959), Canadian Journal of Biochemistry 37, 911-917, which was modified by using dichloromethane instead of chloroform. Each sample's water soluble radioactivity level was quantified using a β-scintillation counter (using Ecolume scintillation fluid, available from MP Biomedicals of Solon, Ohio, USA).

Another data set has as its target T2, Cytochrome P450 26B1 (Homo sapiens, UniProt Q9NR63).
T2 sequence (Q9NR63 whole entry): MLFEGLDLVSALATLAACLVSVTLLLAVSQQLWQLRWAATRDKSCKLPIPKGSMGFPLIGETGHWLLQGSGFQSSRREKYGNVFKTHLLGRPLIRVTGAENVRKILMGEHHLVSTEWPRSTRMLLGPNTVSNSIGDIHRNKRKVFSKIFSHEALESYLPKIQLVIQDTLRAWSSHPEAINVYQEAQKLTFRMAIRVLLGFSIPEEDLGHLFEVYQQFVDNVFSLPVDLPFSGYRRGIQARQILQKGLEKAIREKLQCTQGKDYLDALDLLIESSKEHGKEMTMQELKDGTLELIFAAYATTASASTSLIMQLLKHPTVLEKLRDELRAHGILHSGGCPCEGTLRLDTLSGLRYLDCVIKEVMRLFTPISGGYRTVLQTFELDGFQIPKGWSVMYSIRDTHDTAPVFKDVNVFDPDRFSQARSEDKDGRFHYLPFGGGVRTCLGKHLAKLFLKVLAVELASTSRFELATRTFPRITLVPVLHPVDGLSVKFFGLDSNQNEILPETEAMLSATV
The data set is described as §1.

On to `Cc1cc2c(cc1S(=O)(=O)Nc1ccc(CC(=O)O)cc1)C(C)(C)CCC2(C)C`, for which the half-maximal inhibitory concentration (IC50) is 0.47 µM on Cytochrome P450 26A1 and over 1000 µM on Cytochrome P450 26B1.
With `Cc1ccc(NS(=O)(=O)c2cc(C)c3c(c2)C(C)(C)CC(C)(C)O3)cc1`, the IC50 at Cytochrome P450 26A1 was 1.9 µM; on Cytochrome P450 26B1, 21.8 µM.
